Test results: the supplement of paper PMC10307832

Columns and labels:
Experiment in all cases: relative viability (nuclei count vs DMSO), 5 days (fraction); higher = more cells survive
NCI-H1666 = test system: NCI-H1666
In short: (§1)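 Values are medians from duplicate plates. Each reflects relative viability, defined as the nuclei count of treated wells over that of vehicle wells. Lung cancer cell lines in 1536-well plates were pin-tool dosed one day after seeding with one drug alone or with a fixed anchor-drug dose plus five library-drug doses (not always all listed) in √10 steps, then fixed, stained and imaged at 4× after 5 days.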

NCI-H1755 = test system: NCI-H1755
In short: as §1

NCI-H520 = test system: NCI-H520
In short: as §1

NCI-H322M = test system: NCI-H322M
In short: as §1

NCI-H2347 = test system: NCI-H2347
In short: as §1

SK-LU-1 = test system: SK-LU-1
In short: as §1

NCI-H1395 = test system: NCI-H1395
In short: as §1

HCC-827 = test system: HCC-827
In short: as §1

CAL-12T = test system: CAL-12T
In short: as §1

RERF-LC-KJ = test system: RERF-LC-KJ
In short: as §1

NCI-H1793 = test system: NCI-H1793
In short: as §1

ABC-1 = test system: ABC-1
In short: as §1

NCI-H2126 = test system: NCI-H2126
In short: as §1

ChaGo-K-1 = test system: ChaGo-K-1
In short: as §1

NCI-H3122 = test system: NCI-H3122
In short: as §1

NCI-H358 = test system: NCI-H358
In short: as §1

LU99A = test system: LU99A
In short: as §1

NCI-H1944 = test system: NCI-H1944
In short: as §1

LCLC-103H = test system: LCLC-103H
In short: as §1

LXF-289 = test system: LXF-289
In short: as §1

Cc1csc(=NC2CCCCC2)n1/N=C/c1ccc(O)c(O)c1O [MIM1] + COc1cc2c(Oc3ccc(NC(=O)C4(C(=O)Nc5ccc(F)cc5)CC4)cc3F)ccnc2cc1OCCCN1CCOCC1 [Foretinib] (partner 0.25 µM)
relative viability (NCI-H1666; first compound 0.2 µM): 0.943
relative viability (NCI-H1666; first compound 0.6325 µM): 0.962
relative viability (NCI-H1666; first compound 2 µM): 1
relative viability (NCI-H1666; first compound 6.325 µM): 0.724
relative viability (NCI-H1666; first compound 20 µM): 0.597
relative viability (NCI-H1755; first compound 0.2 µM): 0.882
relative viability (NCI-H1755; first compound 0.6325 µM): 0.927
relative viability (NCI-H1755; first compound 2 µM): 0.902
relative viability (NCI-H1755; first compound 6.325 µM): 0.72
relative viability (NCI-H1755; first compound 20 µM): 0.563
relative viability (NCI-H520; first compound 0.2 µM): 0.635
relative viability (NCI-H520; first compound 0.6325 µM): 0.728
relative viability (NCI-H520; first compound 2 µM): 0.587
relative viability (NCI-H520; first compound 6.325 µM): 0.646
relative viability (NCI-H520; first compound 20 µM): 0.501
relative viability (NCI-H322M; first compound 0.2 µM): 0.986
relative viability (NCI-H322M; first compound 0.6325 µM): 0.895
relative viability (NCI-H322M; first compound 2 µM): 0.867
relative viability (NCI-H322M; first compound 6.325 µM): 0.85
relative viability (NCI-H322M; first compound 20 µM): 0.548
relative viability (NCI-H2347; first compound 0.2 µM): 0.953
relative viability (NCI-H2347; first compound 0.6325 µM): 0.568
relative viability (NCI-H2347; first compound 2 µM): 0.567
relative viability (NCI-H2347; first compound 6.325 µM): 1.18
relative viability (NCI-H2347; first compound 20 µM): 0.445
relative viability (SK-LU-1; first compound 0.2 µM): 0.849
relative viability (SK-LU-1; first compound 0.6325 µM): 0.821
relative viability (SK-LU-1; first compound 2 µM): 0.849
relative viability (SK-LU-1; first compound 6.325 µM): 0.75
relative viability (SK-LU-1; first compound 20 µM): 0.788
relative viability (NCI-H1395; first compound 0.2 µM): 1.03
relative viability (NCI-H1395; first compound 0.6325 µM): 0.975
relative viability (NCI-H1395; first compound 2 µM): 0.905
relative viability (NCI-H1395; first compound 6.325 µM): 0.917
relative viability (NCI-H1395; first compound 20 µM): 0.388
relative viability (HCC-827; first compound 0.2 µM): 1.04
relative viability (HCC-827; first compound 0.6325 µM): 1
relative viability (HCC-827; first compound 2 µM): 1.01
relative viability (HCC-827; first compound 6.325 µM): 0.402
relative viability (HCC-827; first compound 20 µM): 0.207
relative viability (CAL-12T; first compound 0.2 µM): 1.03
relative viability (CAL-12T; first compound 0.6325 µM): 1.16
relative viability (CAL-12T; first compound 2 µM): 1.2
relative viability (CAL-12T; first compound 6.325 µM): 0.68
relative viability (CAL-12T; first compound 20 µM): 0.475
relative viability (RERF-LC-KJ; first compound 0.2 µM): 0.887
relative viability (RERF-LC-KJ; first compound 0.6325 µM): 0.808
relative viability (RERF-LC-KJ; first compound 2 µM): 0.803
relative viability (RERF-LC-KJ; first compound 6.325 µM): 0.637
relative viability (RERF-LC-KJ; first compound 20 µM): 0.24
relative viability (NCI-H1793; first compound 0.2 µM): 0.793
relative viability (NCI-H1793; first compound 2 µM): 0.735
relative viability (NCI-H1793; first compound 6.325 µM): 0.686
relative viability (NCI-H1793; first compound 20 µM): 1.01
relative viability (ABC-1; first compound 0.2 µM): 1.05
relative viability (ABC-1; first compound 0.6325 µM): 1.12
relative viability (ABC-1; first compound 2 µM): 0.981
relative viability (ABC-1; first compound 6.325 µM): 0.324
relative viability (ABC-1; first compound 20 µM): 0.328
relative viability (NCI-H2126; first compound 0.2 µM): 1.14
relative viability (NCI-H2126; first compound 0.6325 µM): 1.17
relative viability (NCI-H2126; first compound 2 µM): 1.35
relative viability (NCI-H2126; first compound 6.325 µM): 1.12
relative viability (NCI-H2126; first compound 20 µM): 0.491
relative viability (ChaGo-K-1; first compound 0.2 µM): 0.973
relative viability (ChaGo-K-1; first compound 0.6325 µM): 1
relative viability (ChaGo-K-1; first compound 2 µM): 0.774
relative viability (ChaGo-K-1; first compound 6.325 µM): 0.771
relative viability (ChaGo-K-1; first compound 20 µM): 0.282
relative viability (NCI-H3122; first compound 0.2 µM): 0.891
relative viability (NCI-H3122; first compound 0.6325 µM): 1.03
relative viability (NCI-H3122; first compound 2 µM): 1.03
relative viability (NCI-H3122; first compound 6.325 µM): 0.683
relative viability (NCI-H3122; first compound 20 µM): 0.64
relative viability (NCI-H358; first compound 0.2 µM): 0.646
relative viability (NCI-H358; first compound 0.6325 µM): 0.758
relative viability (NCI-H358; first compound 2 µM): 0.623
relative viability (NCI-H358; first compound 6.325 µM): 0.348
relative viability (NCI-H358; first compound 20 µM): 0.149
relative viability (LU99A; first compound 0.2 µM): 0.808
relative viability (LU99A; first compound 0.6325 µM): 0.775
relative viability (LU99A; first compound 2 µM): 0.751
relative viability (LU99A; first compound 6.325 µM): 0.743
relative viability (LU99A; first compound 20 µM): 0.407
relative viability (NCI-H1944; first compound 0.2 µM): 0.908
relative viability (NCI-H1944; first compound 0.6325 µM): 0.93
relative viability (NCI-H1944; first compound 2 µM): 0.581
relative viability (NCI-H1944; first compound 6.325 µM): 0.709
relative viability (NCI-H1944; first compound 20 µM): 0.564
relative viability (LCLC-103H; first compound 0.2 µM): 0.82
relative viability (LCLC-103H; first compound 0.6325 µM): 0.833
relative viability (LCLC-103H; first compound 2 µM): 0.942
relative viability (LCLC-103H; first compound 6.325 µM): 0.545
relative viability (LCLC-103H; first compound 20 µM): 0.364
relative viability (LXF-289; first compound 0.2 µM): 1.02
relative viability (LXF-289; first compound 0.6325 µM): 0.9
relative viability (LXF-289; first compound 2 µM): 1.03
relative viability (LXF-289; first compound 6.325 µM): 0.789
relative viability (LXF-289; first compound 20 µM): 0.721

CN1CCN(CCOc2cc(OC3CCOCC3)c3c(Nc4c(Cl)ccc5c4OCO5)ncnc3c2)CC1 [Saracatinib] + COc1cc2c(Oc3ccc(NC(=O)C4(C(=O)Nc5ccc(F)cc5)CC4)cc3F)ccnc2cc1OCCCN1CCOCC1 [Foretinib] (partner 0.25 µM)
relative viability (NCI-H1666; first compound 0.02 µM): 1.04
relative viability (NCI-H1666; first compound 0.2 µM): 0.836
relative viability (NCI-H1666; first compound 0.6325 µM): 1.27
relative viability (NCI-H1666; first compound 2 µM): 1.14
relative viability (NCI-H1755; first compound 0.02 µM): 0.936
relative viability (NCI-H1755; first compound 0.2 µM): 0.849
relative viability (NCI-H1755; first compound 0.6325 µM): 0.821
relative viability (NCI-H1755; first compound 2 µM): 0.792
relative viability (NCI-H520; first compound 0.02 µM): 0.761
relative viability (NCI-H520; first compound 0.6325 µM): 0.611
relative viability (NCI-H520; first compound 2 µM): 0.523
relative viability (NCI-H322M; first compound 0.02 µM): 1.01
relative viability (NCI-H322M; first compound 0.2 µM): 0.921
relative viability (NCI-H322M; first compound 0.6325 µM): 0.826
relative viability (NCI-H322M; first compound 2 µM): 0.403
relative viability (NCI-H2347; first compound 0.02 µM): 1.32
relative viability (NCI-H2347; first compound 0.2 µM): 0.852
relative viability (NCI-H2347; first compound 0.6325 µM): 0.469
relative viability (NCI-H2347; first compound 2 µM): 0.712
relative viability (SK-LU-1; first compound 0.02 µM): 0.602
relative viability (SK-LU-1; first compound 0.2 µM): 0.51
relative viability (SK-LU-1; first compound 0.6325 µM): 0.415
relative viability (SK-LU-1; first compound 2 µM): 0.298
relative viability (NCI-H1395; first compound 0.02 µM): 1.08
relative viability (NCI-H1395; first compound 0.2 µM): 0.908
relative viability (NCI-H1395; first compound 0.6325 µM): 1.03
relative viability (NCI-H1395; first compound 2 µM): 0.856
relative viability (HCC-827; first compound 0.02 µM): 1.08
relative viability (HCC-827; first compound 0.2 µM): 0.452
relative viability (HCC-827; first compound 0.6325 µM): 0.193
relative viability (HCC-827; first compound 2 µM): 0.17
relative viability (CAL-12T; first compound 0.02 µM): 1.12
relative viability (CAL-12T; first compound 0.2 µM): 1.02
relative viability (CAL-12T; first compound 0.6325 µM): 1.33
relative viability (CAL-12T; first compound 2 µM): 1.18
relative viability (RERF-LC-KJ; first compound 0.02 µM): 0.895
relative viability (RERF-LC-KJ; first compound 0.2 µM): 0.855
relative viability (RERF-LC-KJ; first compound 0.6325 µM): 0.917
relative viability (RERF-LC-KJ; first compound 2 µM): 0.877
relative viability (NCI-H1793; first compound 0.02 µM): 0.685
relative viability (NCI-H1793; first compound 0.6325 µM): 0.777
relative viability (NCI-H1793; first compound 2 µM): 0.454
relative viability (ABC-1; first compound 0.02 µM): 1.08
relative viability (ABC-1; first compound 0.2 µM): 0.975
relative viability (ABC-1; first compound 0.6325 µM): 0.998
relative viability (ABC-1; first compound 2 µM): 1.01
relative viability (NCI-H2126; first compound 0.02 µM): 1.15
relative viability (NCI-H2126; first compound 0.2 µM): 1.22
relative viability (NCI-H2126; first compound 0.6325 µM): 1.17
relative viability (NCI-H2126; first compound 2 µM): 1.07
relative viability (ChaGo-K-1; first compound 0.02 µM): 0.943
relative viability (ChaGo-K-1; first compound 0.2 µM): 0.699
relative viability (ChaGo-K-1; first compound 0.6325 µM): 0.973
relative viability (ChaGo-K-1; first compound 2 µM): 0.874
relative viability (NCI-H3122; first compound 0.02 µM): 0.927
relative viability (NCI-H3122; first compound 0.2 µM): 0.891
relative viability (NCI-H3122; first compound 0.6325 µM): 0.9
relative viability (NCI-H3122; first compound 2 µM): 0.66
relative viability (NCI-H358; first compound 0.02 µM): 0.761
relative viability (NCI-H358; first compound 0.2 µM): 0.534
relative viability (NCI-H358; first compound 0.6325 µM): 0.421
relative viability (NCI-H358; first compound 2 µM): 0.213
relative viability (LU99A; first compound 0.02 µM): 0.811
relative viability (LU99A; first compound 0.2 µM): 0.562
relative viability (LU99A; first compound 0.6325 µM): 0.831
relative viability (LU99A; first compound 2 µM): 0.536
relative viability (NCI-H1944; first compound 0.02 µM): 0.868
relative viability (NCI-H1944; first compound 0.6325 µM): 0.935
relative viability (NCI-H1944; first compound 2 µM): 0.549
relative viability (LCLC-103H; first compound 0.02 µM): 0.698
relative viability (LCLC-103H; first compound 0.2 µM): 0.669
relative viability (LCLC-103H; first compound 0.6325 µM): 0.742
relative viability (LCLC-103H; first compound 2 µM): 0.572
relative viability (LXF-289; first compound 0.02 µM): 0.922
relative viability (LXF-289; first compound 0.2 µM): 0.748
relative viability (LXF-289; first compound 0.6325 µM): 1.04
relative viability (LXF-289; first compound 2 µM): 0.891
